Results as given in patent publication US8658644B2, “Pyridazine derivatives, processes for their preparation and their use as fungicides” (Syngenta Crop Protection, LLC, priority 2011, dated 2014).

What was measured:
[1] = tested on: Magnaporthe grisea (Pyricularia oryzae); assay: whole plant or invertebrate; assay type: in vivo; settings: read-out: inhibited fungal infestation
[2] = tested on: Pyrenophora teres (Helminthosporium teres); assay: Pyrenophora teres (Helminthosporium teres) / barley / preventative; assay type: in vivo; settings: barley plants cv. Regina, inoculated 2 days after application, leaf area covered by disease 5 to 7 days after application, read-out: inhibited fungal infestation
Method: Pyrenophora teres (Helminthosporium teres)/Barley/Preventative (Action Against Net Blotch on Barley) 1-week old barley plants cv. Regina were treated with the formulated test compound in a spray chamber. The test plants were inoculated by spraying them with a spore suspension 2 days after application. The inoculated test plants were incubated at 20° C. and 95% rh and the percentage leaf area covered by disease was assessed when an appropriate level of disease appears on untreated check plants (5 to 7 days after application).

Alternaria Solani = assay: Alternaria solani / tomato / preventative; assay type: in vivo; settings: tomato plants cv. Roter Gnom, inoculated two days after application, leaf area covered by disease 5 to 7 days after application, read-out: inhibited fungal infestation
Method: (§1) Alternaria Solani/Tomato/Preventative (Action Against Alternaria on Tomato) 4-week old tomato plants cv. Roter Gnom were treated with the formulated test compound in a spray chamber. The test plants were inoculated by spraying them with a spore suspension two days after application. The inoculated test plants were incubated at 22/18° C. (day/night) and 95% rh in a greenhouse and the percentage leaf area covered by disease was assessed when an appropriate level of disease appears on untreated check plants (5 to 7 days after application).

[3] = tested on: Mycosphaerella graminicola (Septoria tritici); assay: Mycosphaerella graminicola (Septoria tritici) / wheat / curative; assay type: in vivo; settings: Zymoseptoria tritici, wheat plants cv. Riband, treated 5 days after inoculation, leaf area covered by disease 11 to 14 days after application, read-out: inhibited fungal infestation
Method: Mycosphaerella graminicola (Septoria tritici)/Wheat/Curative (Action Against Septoria Leaf Spot on Wheat) 2-week old wheat plants cv. Riband are inoculated by spraying them with a spore suspension. After an incubation period of 2 days at 22° C./21° C. (day/night) and 95% rh, the test plants are kept at 22° C./21° C. (day/night) and 70% rh in a climate chamber. The inoculated test plants are treated with the formulated test compound in a spray chamber 5 days after inoculation. The percentage leaf area covered by disease is assessed when an appropriate level of disease appears on untreated check plants (11 to 14 days after application).

[4] = tested on: Mycosphaerella graminicola (Septoria tritici); assay: Mycosphaerella graminicola (Septoria tritici) / wheat / preventive; assay type: in vivo; settings: Zymoseptoria tritici, wheat plants cv. Riband, inoculated one day after application, leaf area covered by disease 16 to 19 days after application, read-out: inhibited fungal infestation
Method: Mycosphaerella graminicola (Septoria tritici)/Wheat/Preventive (Action Against Septoria Leaf Spot on Wheat) 2-week old wheat plants cv. Riband were treated with the formulated test compound in a spray chamber. The test plants were inoculated by spraying a spore suspension on them one day after application. After an incubation period of 1 day at 22° C./21° C. (day/night) and 95% rh, the test plants were kept at 22° C./21° C. (day/night) and 70% rh in a greenhouse. The percentage leaf area covered by disease is assessed when an appropriate level of disease appears on untreated check plants (16 to 19 days after application).

[5] = tested on: Botryotinia fuckeliana (Botrytis cinerea); assay: Botryotinia fuckeliana (Botrytis cinerea) / tomato / preventative; assay type: in vivo; settings: tomato plants cv. Roter Gnom, inoculated two days after application, leaf area covered by disease 5 to 6 days after application, read-out: inhibited fungal infestation
Method: as §1, with “Botryotinia fuckeliana (Botrytis cinerea)/Tomato/Preventative” for “Alternaria Solani/Tomato/Preventative”, “Botrytis” for “Alternaria”, “20°” for “22/18°”, “C.” for “C. (day/night)”, “is” for “was”, “6” for “7”

[6] = tested on: Erysiphe necator (Uncinula necator); assay: Erysiphe necator (Uncinula necator) / grape / preventative; assay type: in vivo; settings: grape seedlings cv. Gutedel, inoculated 1 day after application, leaf area covered by disease 7 to 9 days after application, read-out: inhibited fungal infestation
Method: Erysiphe necator (Uncinula necator)/Grape/Preventative (Action Against Powdery Mildew on Grape) 5-week old grape seedlings cv. Gutedel were treated with the formulated test compound in a spray chamber. The test plants are inoculated by shaking plants infected with grape powdery mildew above them 1 day after application. The inoculated test plants were incubated at 24/22° C. (day/night) and 70% rh under a light regime of 14/10 h (light/dark) and the percentage leaf area covered by disease was assessed when an appropriate level of disease appears on untreated check plants (7 to 9 days after application).

Puccinia recondita = Puccinia recondita / wheat / preventative; assay type: in vivo; settings: wheat plants cv. Arina, inoculated one day after application, leaf area covered by disease 12 to 14 days after application, read-out: inhibited fungal infestation
Method: Puccinia recondita/Wheat/Preventative (Action Against Brown Rust on Wheat) 2-week old wheat plants cv. Arina were treated with the formulated test compound in a spray chamber. The test plants were inoculated by spraying them with a spore suspension one day after application. After an incubation period of 1 day at 20° C. and 95% rh, the test plants were kept at 20° C./18° C. (day/night) and 60% rh in a greenhouse. The percentage leaf area covered by disease was assessed when an appropriate level of disease appears on untreated check plants (12 to 14 days after application).

Row | Structure (SMILES) | melting point | inhibition at 200 ppm [1] | inhibition at 200 ppm [2] | inhibition at 200 ppm (Alternaria Solani) | inhibition at 200 ppm [3] | inhibition at 200 ppm [4] | inhibition at 200 ppm [5] | inhibition at 200 ppm [6] | inhibition at 200 ppm (Puccinia recondita)
1 | C#Cc1ccc(-c2c(C)n[nH]c(=O)c2-c2c(F)cc(F)cc2F)cc1 [Compound 1, 5-(4-ethynylphenyl)-6-methyl-4-(2,4,6-trifluorophenyl)-2H-pyridazin-3-one] | 252 to 254 °C | – | – | – | – | – | – | – | –
2 | C#Cc1ccc(-c2c(C)nnc(Cl)c2-c2c(F)cc(F)cc2F)cc1 [Compound 2, 3-chloro-5-(4-ethynylphenyl)-6-methyl-4-(2,4,6-trifluorophenyl)pyridazine] | 174 to 175 °C | ≥ 80% | ≥ 80% | ≥ 80% | ≥ 80% | ≥ 80% | ≥ 80% | ≥ 80% | ≥ 80%
3 | C#Cc1ccc(-c2c(C)nnc(OC)c2-c2c(F)cc(OC)cc2F)cc1 [Compound 4, 4-(2,6-difluoro-4-methoxyphenyl)-5-(4-ethynylphenyl)-3-methoxy-6-methylpyridazine] | 192 to 193 °C | ≥ 80% | ≥ 80% | ≥ 80% | ≥ 80% | ≥ 80% | ≥ 80% | – | –
